Assay results as given in patent publication US9156860B2, “Boron-containing small molecules” (Anacor Pharmaceuticals, Inc., priority 2011, dated 2015).

Legend:
[1] = Clinical signs / tolerability in rats; assay type: in vivo; conditions: oral ≦5 mg/kg, Example 8
[2] = tested on: Lone star tick larvae (Amblyomma americanum); assay: Larval immersion microassay against larval-stage Lone star ticks; conditions: for mortality at 300 µM: Amblyomma americanum, 24 h, read-out: activity (percent larval mortality)
Procedure: The larval immersion microassay was conducted as described in detail in White, et al., J. Med. Entomol. […] Compounds of the invention were formulated in dimethylsulfoxide (DMSO) to prepare a stock solution at a concentration of at least 10 mM. […] Approximately 30-50 Lone star tick larvae (Amblyomma americanum) were submerged into each well containing compounds. After a 30 minute immersion period, larvae were removed with a wide-bore pipette tip in 0.05 ml of fluid, dispensed into a commercial paper tissue biopsy bag which was sealed at the top with a plastic dialysis clip, inverted and allowed to air dry for 60 minutes. Bags containing larvae were then incubated at approximately 27 degrees Celsius and >90% relative humidity. After 24 hours, bags were opened, live and dead larvae were counted and percent larval mortality was calculated.
7 contains one chiral center, and is therefore a racemic mixture comprised of approximately 50% R- and 50% S-enantiomer. In vitro and surrogate animal (rat) studies were conducted to evaluate the biological activity of the R- and S-enantiomers of 7. For the in vitro study, larvae of the Lone star tick (Amblyomma americanum) were exposed to 17 (S-enantiomer) and 18 (R-enantiomer) using the larval immersion microassay at a concentration of no greater than 0.3 mM. Following exposure, larvae were removed, transferred to a tissue biopsy bag and incubated at approximately 27 degrees Celsius and >90% relative humidity. After 24 hours, biopsy bags were opened and the numbers of live and dead larvae were determined.

[3] = tested on: Dermacentor variabilis tick nymphs; assay: Efficacy against nymphal-stage American dog ticks on rats; assay type: in vivo
Procedure: Evaluations were conducted using a modified version of the assay as described in Gutierrez et al., J. Med. Entomol. 43(3): 526-532 (2006). This assay may be modified by simply using different tick species (the reference describes Amblyomma americanum ticks), such as Dermacentor variabilis or Rhipicephalus sanguineus ticks, as well as different life-stages (larval, nymphal or adult). Further, the reference describes using topical application methods, but oral, transdermal and subcutaneous injection routes of administration may be used.
In these studies, adult male or female rats, approximately 300 grams in size, were randomly assigned to a treatment group or a control (untreated negative control or fipronil positive control) group. Each group consisted of three (3) to five (5) rats. […] On Day 2, approximately forty-eight (48) hours after treatment, live and dead ticks were removed from animals and counted.
Live tick counts were transformed using the natural logarithm transformation plus one (Ln count+1); addition of one to each count served to adjust for counts that were zero. […] GM percent efficacy of treatments was calculated using the following formula:
Enantiomers were evaluated for activity against American dog tick (Dermacentor variabilis) nymphs on rats. […] On Day 2, approximately forty-eight (48) hours after treatment, live and dead ticks were removed from animals and counted. […]

[4] = tested on: brown dog tick (Rhipicephalus sanguineus); assay: Example 5: efficacy against brown dog tick infestations on dogs; assay type: in vivo
Procedure: (§1) The therapeutic (knockdown) and residual efficacy of 7 and 8, each administered orally at a point dose of either 25 mg/kg or 50 mg/kg bodyweight, was evaluated against adult tick (Dermacentor variabilis and Rhipicephalus sanguineus) infestations on dogs. Twenty (20) male and female beagle dogs were allocated to one of five treatment groups, four (4) dogs per group: Untreated control; 7, 25 mg/kg; 7, 50 mg/kg; 8, 25 mg/kg; and 8, 50 mg/kg. On Day −1, all dogs were infested with approximately 50 unfed, adult D. variabilis ticks. On Day 0, dogs were orally administered gelatin capsules containing either 7 or 8 (50% technical active, 47% microcrystalline cellulose and 3% croscarmellose sodium, w/w) so as to achieve the desired point dosages. Ticks were counted and classified on all dogs, but not removed, on Day 1 (approximately 24 hours after treatment). On Day 2, approximately 48 hours after treatment, ticks were counted, classified and removed. Dogs were re-infested with the same number of D. variabilis ticks on Days 5, 12 and 19 with corresponding 48 hour post-infestation tick counts on Days 7, 14 and 21. Dogs were infested with approximately 50 unfed, adult brown dog ticks (Rhipicephalus sanguineus; approximately 50% male and 50% female) on Days 15 and 28, with corresponding 48 hour post-infestation tick counts on Days 17 and 30. GM percent efficacy of treatments against both tick species was calculated using the following formula: […]

[5] = tested on: adult American dog tick (Dermacentor variabilis); assay: Example 5: efficacy against adult American dog tick infestations on dogs; assay type: in vivo
Procedure: as §1

[6] = Tolerability of oral treatment in dogs; assay type: in vivo, beagle dogs
Procedure: The therapeutic (knockdown) and residual efficacy of 7, administered orally at a point dosages of 5 and 25 mg/kg bodyweight, was evaluated against adult American dog tick (D. variabilis) and cat flea (C. felis) infestations on dogs. Sixteen (16) male and female beagle dogs were allocated to one of four treatment groups: Untreated control group (n=4 dogs); 7, 5 mg/kg liquid oral dosage form (n=4 dogs); 7, 25 mg/kg liquid oral dosage form (n=4 dogs); and 7, 25 mg/kg solid oral dosage form. Liquid dosage forms were prepared by dissolving 7 in a solution of 55% polyethylene glycol-300, 35% propylene glycol and 10% water at 25 mg/ml. Solid oral dosage form was prepared by thoroughly mixing 7 with microcrystalline cellulose and croscarmellose sodium (50:47:3, w/w) and placing into size 00 gelatin capsules. On Day 0, all dogs were orally administered 7 at the prescribed point dosages. Twenty-four (24) hours before treatment (Day −1), all dogs were infested with approximately 50 unfed, adult-stage American dog ticks (D. variabilis; approximately 50% male and 50% female). On Day 2, approximately 48 hours after treatment, ticks were removed and counts were conducted to determine the number and life-status classification of ticks present on all dogs (normal, moribund or dead; attached or detached). For all groups, dogs were re-infested with approximately 50 unfed, adult D. variabilis ticks on Days 5 and 12, with tick classification, counts and removal on Days 7 and 14 (approximately 48 hours after each infestation). For negative control and 7 (25 mg/kg solid oral dosage form) groups, dogs were re-infested with approximately 50 unfed, adult D. variabilis ticks on Days 19 and 28, with tick classification, counts and removal on Days 21 and 30. Immediately following removal of ticks on Day 30, dogs in the negative control and 7 (25 mg/kg solid oral dosage form) groups were infested with approximately 100 unfed, adult cat fleas (C. felis). Flea counts were conducted approximately 48 hours later, on Day 32.
as §1
The efficacy of 7, administered orally at a point dose of 25 mg/kg bodyweight, was evaluated against adult tick (Dermacentor variabilis) infestations. Twelve (12) male and female beagle dogs were allocated to three treatment groups: Untreated, negative control A; 7 group B; and 7 group C (n=4 dogs per group). Dogs were infested with approximately 50 unfed, adult D. variabilis ticks on Days −1, 5, 12, 19 and 28. […]

[7] = tested on: brown dog tick (Rhipicephalus sanguineus); assay: Example 9: efficacy against brown dog tick infestations on dogs; assay type: in vivo; conditions: 50 mg/kg oral, Day 32
Procedure: (§2) The therapeutic (knockdown) and residual efficacy of 17, administered orally at a point dose of 50 mg/kg bodyweight, was evaluated against adult tick (Dermacentor variabilis and Rhipicephalus sanguineus) and adult cat flea (Ctenocephalides felis) infestations on dogs. Eight (8) male and female beagle dogs were allocated to either an untreated, negative control group or 17 group (n=4 dogs per group). Dogs were infested with approximately 50 unfed, adult D. variabilis ticks on Days −1, 5, 12, 19, and 28. On Day 0, dogs were orally administered gelatin capsules containing 17 (50% technical active, 47% microcrystalline cellulose and 3% croscarmellose sodium, w/w) at a point dose of 50 mg/kg. D. variabilis tick counts and classification were conducted on Day 1 (thumb count, approximately 24 hours after treatment) and Days 2, 7, 14, 21 and 30 (approximately 48 hours after treatment). Following removal of D. variabilis ticks on Day 30, all dogs were co-infested with approximately 50 unfed, adult brown dog ticks (R. sanguineus) and approximately 100 unfed, adult cat fleas (C. felis). Brown dog tick and cat flea counts were conducted on Day 32 (approximately 48 hours after infestation). GM percent efficacy of treatments against both tick species and fleas was calculated using the following formula: […]

[8] = tested on: adult American dog tick (Dermacentor variabilis); assay: Example 9: efficacy against adult American dog tick infestations on dogs; assay type: in vivo; conditions: 50 mg/kg oral
Procedure: as §2

[9] = tested on: cat flea (Ctenocephalides felis); assay: Example 9: efficacy against cat flea infestations on dogs; assay type: in vivo; conditions: 50 mg/kg oral, Day 32
Procedure: as §2

CC1(C)OB(O)c2ccc(C3=NO[C@](c4cc(Cl)c(Cl)c(Cl)c4)(C(F)(F)F)C3)cc21 [Compound 18, (R)-3,3-Dimethyl-5-(5-(3,4,5-trichlorophenyl)-5-(trifluoromethyl)-4,5-dihydroisoxazol-3-yl)benzo[c][1,2]oxaborol-1(3H)-ol]
tolerability [1]: well tolerated | In vitro activity at 0.3 mM ([2]; 0.3 mM, A. americanum larvae, counted after 24 hours): 0.0% | % Efficacy at Dose of ≦5 mg/kg ([3]; oral point doses of ≦5 mg/kg, D. variabilis nymphs, 48 hours after treatment, 5 mg/kg): 10.7%

N#Cc1nn(-c2c(Cl)cc(C(F)(F)F)cc2Cl)c(N)c1[S+]([O-])C(F)(F)F (centres unmarked) [Fipronil, reference compound]
efficacy (% reduction in live tick counts) ([3]; positive control, oral 10 mg/kg bodyweight, all studies): > 95%

CC1(C)OB(O)c2ccc(C3=NOC(c4cc(Cl)c(F)c(Cl)c4)(C(F)(F)F)C3)cc21 (centres unmarked) [Compound 8, 5-(5-(3,5-dichloro-4-fluorophenyl)-5-(trifluoromethyl)-4,5-dihydroisoxazol-3-yl)-3,3-dimethyl-benzo[c][1,2]oxaborol-1(3H)-ol]
% efficacy ([4]; 25 mg/kg oral capsule, Day 17): (73.4) % | Geometric mean group live tick count ([4]; 25 mg/kg oral capsule, Day 17): 7.2 | % efficacy ([4]; 50 mg/kg oral capsule, Day 17): (80.2) % | Geometric mean group live tick count ([4]; 50 mg/kg oral capsule, Day 17): 5.4 | % efficacy ([4]; 50 mg/kg oral capsule, Day 30): (42.1) % | Geometric mean group live tick count ([4]; 50 mg/kg oral capsule, Day 30): 21.5 | mortality at 300 µM [2]: ≥ 80% | % efficacy ([5]; 25 mg/kg oral capsule, Day 1): (81.0) % | Geometric mean group live tick count ([5]; 25 mg/kg oral capsule, Day 1): 2.0 | Geometric mean group live tick count ([5]; 25 mg/kg oral capsule, Day 2): 0.0 | Geometric mean group live tick count ([5]; 25 mg/kg oral capsule, Day 7): 1.5 | % efficacy ([5]; 25 mg/kg oral capsule, Day 14): (85.0) % | Geometric mean group live tick count ([5]; 25 mg/kg oral capsule, Day 14): 2.5 | % efficacy ([5]; 25 mg/kg oral capsule, Day 21): (79.3) % | Geometric mean group live tick count ([5]; 25 mg/kg oral capsule, Day 21): 3.4 | % efficacy ([5]; 50 mg/kg oral capsule, Day 1): (80.9) % | Geometric mean group live tick count ([5]; 50 mg/kg oral capsule, Day 1): 2.0 | Geometric mean group live tick count ([5]; 50 mg/kg oral capsule, Day 2): 0.0 | Geometric mean group live tick count ([5]; 50 mg/kg oral capsule, Day 7): 0.6 | % efficacy ([5]; 50 mg/kg oral capsule, Day 14): (80.4) % | Geometric mean group live tick count ([5]; 50 mg/kg oral capsule, Day 14): 3.2 | % efficacy ([5]; 50 mg/kg oral capsule, Day 21): (75.1) % | Geometric mean group live tick count ([5]; 50 mg/kg oral capsule, Day 21): 4.0 | tolerability ([6]; oral 25 or 50 mg/kg, Example 5): well tolerated

CC1(C)OB(O)c2ccc(C3=NO[C@@](c4cc(Cl)c(Cl)c(Cl)c4)(C(F)(F)F)C3)cc21 [Compound 17, (S)-3,3-Dimethyl-5-(5-(3,4,5-trichlorophenyl)-5-(trifluoromethyl)-4,5-dihydroisoxazol-3-yl)benzo[c][1,2]oxaborol-1(3H)-ol]
tolerability [1]: well tolerated | Geometric mean group live tick count [7]: 1.9 | Geometric mean group live tick count ([8]; Day 1): 0.7 | Geometric mean group live tick count ([8]; Day 2): 0.0 | % efficacy ([8]; Day 7): (100) % | Geometric mean group live tick count ([8]; Day 7): 0.0 | % efficacy ([8]; Day 14): (96.7) % | Geometric mean group live tick count ([8]; Day 14): 1.2 | % efficacy ([8]; Day 21): (100) % | Geometric mean group live tick count ([8]; Day 21): 0.0 | Geometric mean group live tick count ([8]; Day 30): 1.9 | residual efficacy ([8]; through Day 21): 97-100% | mortality at 300 µM [2]: ≥ 80% | Geometric mean group live flea count [9]: 0.0 | tolerability ([6]; oral 50 mg/kg, Example 9): well tolerated

Cc1c(Cl)cc(C2(C(F)(F)F)CC(c3ccc4c(c3)C(C)(C)OB4O)=NO2)cc1Cl (centres unmarked) [Compound 9, 5-(5-(3,5-Dichloro-4-methylphenyl)-5-(trifluoromethyl)-4,5-dihydroisoxazol-3-yl)-3,3-dimethylbenzo[c][1,2]oxaborol-1(3H)-ol]
mortality at 300 µM [2]: ≥ 80%
